Several values for one entry are separate records, joined by “and”; a condition that tells them apart may be missing. Identical values can stand only once. Activity calls are given as the source filed them. No rule for the calls is given here. Some results are limits rather than exact numbers.

The results in this text go back to PubChem BioAssay AID743303 (Broad Institute, 2014).

Assay [1] concerns C. neoformans cell lysis, adenylate kinase release. The experiment in a line: inducers of C. neoformans cell lysis, dose response, AK release, plate reader, dry powder, set 2 (AID 743303).
Assay in assay [2]: as above
The settings on record: C. neoformans cell lysis, adenylate kinase release; at 15 µM (top of the series).

Regarding `Cc1ccc(C(C)C)c(OCCn2c(N)nc3ccccc32)c1`, the AC40 in assay [1] is > 15 µM (inactive).
On to `Clc1ccc(OCCn2cnc3ccccc32)cc1`, for which the AC40 in assay [1] was > 15 µM (inactive).
For `COCc1nc2ccccc2n1CCOc1ccc(C(C)(C)C)cc1`, the AC40 in assay [1] was > 15 µM (inactive).
`CC(C)Oc1cccc(OCCn2cnc3ccccc32)c1`: in assay [1], the AC40 was > 15 µM (inactive).
Regarding `CCc1nc2ccccc2n1CCOc1ccccc1`, in assay [1], the AC40 was > 15 µM (inactive).
As for `COc1ccc(OCCn2cnc3ccccc32)cc1`, the AC40 in assay [1] is > 15 µM (inactive).
Consider `Cc1cccc(OCCn2c(=S)[nH]c3ccc(C(F)(F)F)cc32)c1`, for which the AC40 in assay [1] is > 15 µM (inactive).
For the molecule `CC(C)Oc1ccc(OCCn2c(=S)[nH]c3ccccc32)cc1`, the cell lysis activity in assay [2] is 26.4% (inactive).
Regarding `Cc1ccccc1OCCn1cnc2ccccc21`, the AC40 in assay [1] was 15 µM.
Take `S=c1[nH]c2cc(Cl)ccc2n1CCOc1ccccc1`: the AC40 in assay [1] was 2.57 µM.
With `O=S(=O)(c1ccc(OCCn2cnc3ccccc32)cc1)N1CCOCC1`, the cell lysis activity in assay [2] is -15% (inactive).
On to `CC(C)Oc1ccc(OCCn2cnc3ccccc32)cc1`, for which the AC40 in assay [1] is > 15 µM (inactive).
Regarding `FC(F)(F)c1cccc(OCCn2cnc3ccccc32)c1`, the AC40 in assay [1] was > 15 µM (inactive).
For the molecule `Cc1cc2ncn(CCOc3ccc4c(c3)CCC4)c2cc1C`, the AC40 in assay [1] was 4.6 µM.
With `S=c1[nH]c2cccc(Cl)c2n1CCOc1ccccc1`, in assay [1], the AC40 is 2.83 µM.
Take `Cc1ccc(C(C)C)c(OCCn2c(=O)[nH]c3ccccc32)c1`: the cell lysis activity in assay [2] was -24.5% (inactive).
Take `Cc1cccc(OCCn2c(=S)[nH]c3c(F)cccc32)c1`: in assay [1], the AC40 was 3.23 µM and 1.51 µM.
As to `CCCc1nc2ccccc2n1CCOc1ccccc1`, the AC40 in assay [1] was 7.46 µM.
Same read-out and setting: for `CC(C)(C)c1ccc(OCCn2cnc3ccccc32)c(Cl)c1` the value was > 15 µM (inactive).
For the molecule `c1ccc2c(c1)ncn2CCOc1ccc2c(c1)CCC2`, in assay [2], the cell lysis activity was 33.8% (inactive).
Regarding `c1ccc(-c2ccc(OCCn3cnc4ccccc43)cc2)cc1`, the cell lysis activity in assay [2] is 6.2% (inactive).
With `CSc1nc2ccccc2n1CCOc1ccccc1`, in assay [1], the AC40 was > 15 µM (inactive).
On to `Cc1ccc(C(C)C)c(OCCn2c(NC#N)nc3ccccc32)c1`, for which, in assay [2], the cell lysis activity was -24% (inactive).
As for `CC(C)(C)c1ccc(OCCn2cnc3ccccc32)cc1`, the AC40 in assay [1] is 1.46 µM.
In the case of `Fc1ccc2c(c1)[nH]c(=S)n2CCOc1ccccc1`, the AC40 in assay [1] is 2.83 µM and 6.57 µM.
Regarding `CCSc1nc2ccccc2n1CCOc1ccccc1`, in assay [1], the AC40 was > 15 µM (inactive).
Take `Cc1cccc(OCCn2cnc3ccccc32)c1`: in assay [1], the AC40 is 12.8 µM.
For `COc1cccc(OCCn2cnc3ccccc32)c1`, in assay [2], the cell lysis activity was -2.74% (inactive).
As for `Cc1cc2ncn(CCOc3ccccc3C)c2cc1C`, in assay [1], the AC40 was 2.42 µM.
Regarding `CC(C)(C)c1ccc(OCCn2c(CO)nc3ccccc32)cc1`, the AC40 in assay [1] is 14.2 µM.
The same measure, in the same setting: under `Cc1ccc(OCCn2cnc3ccccc32)c(C(C)C)c1` stands 4.09 µM.
For the molecule `CSc1nc2ccccc2n1CCOc1ccc(C)cc1`, in assay [2], the cell lysis activity was 16.4% (inactive).
With `NCC(=O)Nc1ccc(-n2nc(C(F)(F)F)cc2-c2ccc3c(ccc4ccccc43)c2)cc1`, the AC40 in assay [1] was 5 µM.
Take `COc1ccccc1OCCn1c(SC)nc2ccccc21`: the AC40 in assay [1] is > 15 µM (inactive).
With `Cc1ccc(OCCn2cnc3cc(C)c(C)cc32)cc1`, in assay [1], the AC40 is 1.94 µM.
On to `COc1cc(C)ccc1OCCn1cnc2ccccc21`, for which the cell lysis activity in assay [2] was -57.7% (inactive).
As for `Fc1ccc(OCCn2c(=S)[nH]c3ccccc32)cc1`, in assay [2], the cell lysis activity is -65.4% (inactive).
Turning to `CC(C)c1ccccc1NCCn1c(=S)[nH]c2ccccc21`, the AC40 in assay [1] is 3.78 µM.
The same measure, in the same setting: under `Cc1ccc(C(C)C)c(OCCn2c(=S)[nH]c3ccccc32)c1` stands 9.17 µM; under `Cc1cccc(OCCn2c(=S)[nH]c3ccccc32)c1`, 1.38 µM.
Turning to `OCc1nc2ccccc2n1CCOc1ccccc1`, the AC40 in assay [1] was > 15 µM (inactive).
As to `Clc1ccc(OCCn2cnc3ccccc32)c(Cl)c1`, the cell lysis activity in assay [2] was -34% (inactive).
As to `Cc1ccc(OCCn2cnc3ccccc32)c(C)c1`, the AC40 in assay [1] is > 15 µM (inactive).
With `CCCCc1nc2ccccc2n1CCOc1ccccc1`, the AC40 in assay [1] is 6.27 µM.
As to `Cc1ccc2c(c1)[nH]c(=S)n2CCOc1ccccc1`, in assay [2], the cell lysis activity is 10.9% (inactive).
In the case of `Fc1cccc2c1[nH]c(=S)n2CCOc1ccccc1`, in assay [1], the AC40 is 13.8 µM.
The same measure, in the same setting: for `Cc1cc2ncn(CCOc3ccccc3)c2cc1C` the value was 10.1 µM; for `Cc1ccc(C(C)C)c(OCCn2c(CO)nc3ccccc32)c1`, > 15 µM (inactive).
Same read-out and setting: for `Clc1ccccc1OCCn1cnc2ccccc21` the value was > 15 µM (inactive).
On to `CSc1nc2ccccc2n1CCOc1cc(C)ccc1C(C)C`, for which, in assay [2], the cell lysis activity is -20.1% (inactive).
Consider `CS(=O)(=O)c1ccc(OCCn2cnc3ccccc32)cc1`, for which the cell lysis activity in assay [2] was -28.4% (inactive).
Take `Cc1cccc(OCCn2c(=S)[nH]c3cc(F)ccc32)c1`: the AC40 in assay [1] was 2.42 µM and 3.03 µM.
As to `c1ccc(COc2ccc(OCCn3cnc4ccccc43)cc2)cc1`, the AC40 in assay [1] is > 15 µM (inactive).
Regarding `CC(C)c1ccccc1OCCn1c(=S)[nH]c2ccccc21`, the AC40 in assay [1] is 1.25 µM.
For `COc1ccccc1OCCn1c(=S)[nH]c2ccccc21`, the cell lysis activity in assay [2] was -4.68% (inactive).
